Here are results for 2 molecules from ChEMBL document CHEMBL4251592, “Recent advances in microtubule-stabilizing agents” (Eur J Med Chem, 2018).

One experiment concerns HL-60. Kind of experiment: Growth inhibition of human HL60 cells incubated for 48 hrs by SRB assay. The experiment is classed as functional. The conditions noted are these: HL-60, 48 h.
The test system of a further experiment is HCC 2998. Kind of experiment: Growth inhibition of human HCC2998 cells incubated for 48 hrs by SRB assay. It is filed as functional. The conditions noted are these: HCC 2998, 48 h. (In general: The SRB assay estimates cell density from bound dye.)
Another experiment relates to K562. Kind of experiment: Growth inhibition of human K562 cells incubated for 48 hrs by SRB assay. It is filed as functional. The conditions noted are these: K562, 48 h.
The subject of the next experiment is SF-539. Put plainly: Growth inhibition of human SF539 cells incubated for 48 hrs by SRB assay. The experiment is classed as functional. Particulars: SF-539, 48 h.
The test system of another experiment is U-937. Put plainly: Cytotoxicity against human U937 cells incubated for 48 hrs by SRB assay. The experiment is classed as functional, cell-based. The conditions noted are these: U-937, 48 h.
For a further experiment, the system named is SKM-1. Kind of experiment: Cytotoxicity against human SKM1 cells incubated for 48 hrs by SRB assay. The experiment is classed as functional, cell-based. Particulars: SKM-1, 48 h.

SMILES strings stand for the structures. Converted amounts (≈) assume the structure as drawn.

The term GI50 denotes the concentration giving 50% growth inhibition. In the case of `C=C1C[C@@H]2C/C=C/C(=O)C/C(C)=C\C=C\C(=O)O[C@H](C=O)C/C(C)=C/[C@H](C1)O2`, the GI50 with HL-60, in the experiment with HCC 2998, in the experiment on K562 and in the experiment with SF-539 was 0.025 to 0.099 µg/mL (≈ 0.065 to 0.257 µM) each time.
Usually IC50 stands for the concentration that gives 50% inhibition. For `C=C1C[C@@H]2C/C=C/C(=O)C/C(C)=C\C=C\C(=O)O[C@H]([C@H](O)NC(=O)/C=C\C=C\C)C/C(C)=C/[C@H](C1)O2` [ZAMPANOLIDE], the IC50 with U-937 and in the experiment with SKM-1 was 1.1 to 2.9 nM in each case.
